# Source: patent US9309242B2, “Substituted pyrido[2,3-b]pyrazines as FGFR kinase inhibitors” (priority 2011, dated 2016)
# Experiments:
# [1] = target: FGFR4 (h) (Homo sapiens, UniProt P22455); assay: FGFR4 (enzymatic assay), TR-FRET; type: biochemical; details: FGFR 4 pIC50, enzymatic assay
# [2] = target: FGFR3 (h) (Homo sapiens, UniProt P22607); assay: FGFR3 (enzymatic assay), TR-FRET; type: biochemical; details: read-out: FGFR 3 pIC50 (converted)
# Source text: Time-Resolved Fluorescence Resonance Energy Transfer (TR-FRET) signal (ex340 nm.
# [3] = target: T1, Ba/F3-FGFR1-transfected cells (Homo sapiens, UniProt P11362); assay: Ba/F3-FGFR1 (minus IL3) cellular proliferation assay, Alamar Blue; type: cell-based
# T1 construct: BAF3-FGFR1 (MIN IL3) pIC50; other: minus IL3
# Procedure, shortened: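 Read-out: resazurin reduction, fluorescence ex 540 nm/em 590 nm after 4 h Alamar Blue at 37 °C. Before that, FGFR1-transfected Ba/F3 cells (20000/well) sat with compound for 24 h in RPMI-1640/10% FBS/2 mM L-Gln.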
# [4] = test system: Ba/F3-KDR-transfected cells; assay: Ba/F3-KDR (plus IL3) cellular proliferation assay, counterscreen with 10 ng/ml murine IL3; type: cell-based; details: plus IL3 (10 ng/ml murine IL3, counterscreen); read-out: BAF3-KDR (PLUS IL3) pIC50 (converted)
# Procedure, shortened: (§1)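 Proliferation read-out by Alamar Blue fluorescence (ex. 540 nm, em. 590 nm) after 4 hours, following 24 hours of compound treatment at 37° C of 20000 Ba/F3-KDR cells per well in RPMI-1640/10% FBS. Same protocol with 10 ng/ml murine IL3 serves as counterscreen.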
# [5] = target: T2, Ba/F3-KDR-transfected cells (Homo sapiens, UniProt P35968); assay: Ba/F3-KDR (minus IL3) cellular proliferation assay, Alamar Blue; type: cell-based
# T2 construct: BAF3-KDR (MIN IL3) pIC50; other: minus IL3
# Procedure, shortened: as §1
# [6] = target: T3, Ba/F3-FGFR3-transfected cells (Homo sapiens, UniProt P22607); assay: Ba/F3-FGFR3 (minus IL3) cellular proliferation assay, Alamar Blue; type: cell-based
# T3 construct: BAF3-FGFR3 (MIN IL3) pIC50; other: minus IL3
# Procedure, shortened: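 Read-out: resazurin-based Alamar Blue fluorescence (ex 540 nm, em 590 nm) after a 4 h dye incubation. FGFR3-transfected Ba/F3 cells, 20000 per well, are exposed to compound for 24 h at 37° C in RPMI-1640/10% FBS. Plus-IL3 counterscreen adds 10 ng/ml murine IL3.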
# [7] = target: FGFR2 (h) (Homo sapiens, UniProt P21802); assay: FGFR2 (enzymatic assay), TR-FRET; type: biochemical; details: enzymatic assay; read-out: FGFR 2 pIC50 (converted)
# Procedure, shortened: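 hFGFR2 150 ng/ml; Btn-Flt3 500 nM; ATP 0.4 μM; 50 mM HEPES pH 7.5, 6 mM MnCl2, 1 mM DTT, 0.1 mM Na3VO4, 0.01% Triton-X-100; 1% DMSO final.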
# [8] = target: KDR (h) (Homo sapiens, UniProt P35968); assay: KDR (VEGFR2) (enzymatic assay), TR-FRET; type: biochemical; details: read-out: VEGFR 2 (KDR) pIC50 (converted)
# Procedure, shortened: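 TR-FRET readout (ex 340, em 620/655 nm) in RFU after EDTA stop with Eu-anti-phosphotyrosine and SA-XL665 for 60 min. The preceding 120-min room-temperature kinase step used 150 ng/ml KDR (h), 3 μM ATP, 500 nM biotinylated Flt3 peptide, MnCl2-containing HEPES buffer pH 7.5, 1% DMSO.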
# [9] = test system: Ba/F3-FGFR1-transfected cells; assay: Ba/F3-FGFR1 (plus IL3) cellular proliferation assay, counterscreen with 10 ng/ml murine IL3; type: cell-based; details: plus IL3 (10 ng/ml murine IL3, counterscreen); read-out: BAF3-FGFR1 (PLUS IL3) pIC50 (converted)
# Procedure, shortened: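 Proliferation read-out: resazurin-based Alamar Blue fluorescence (540/590 nm) after 4 h, following 24 h compound treatment of 20000 Ba/F3-FGFR1 cells per well in 10% FBS RPMI at 37° C. IL3 counterscreen used the same protocol plus 10 ng/ml murine IL3.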
# Sequence of FGFR2 (h) (P21802 22-821): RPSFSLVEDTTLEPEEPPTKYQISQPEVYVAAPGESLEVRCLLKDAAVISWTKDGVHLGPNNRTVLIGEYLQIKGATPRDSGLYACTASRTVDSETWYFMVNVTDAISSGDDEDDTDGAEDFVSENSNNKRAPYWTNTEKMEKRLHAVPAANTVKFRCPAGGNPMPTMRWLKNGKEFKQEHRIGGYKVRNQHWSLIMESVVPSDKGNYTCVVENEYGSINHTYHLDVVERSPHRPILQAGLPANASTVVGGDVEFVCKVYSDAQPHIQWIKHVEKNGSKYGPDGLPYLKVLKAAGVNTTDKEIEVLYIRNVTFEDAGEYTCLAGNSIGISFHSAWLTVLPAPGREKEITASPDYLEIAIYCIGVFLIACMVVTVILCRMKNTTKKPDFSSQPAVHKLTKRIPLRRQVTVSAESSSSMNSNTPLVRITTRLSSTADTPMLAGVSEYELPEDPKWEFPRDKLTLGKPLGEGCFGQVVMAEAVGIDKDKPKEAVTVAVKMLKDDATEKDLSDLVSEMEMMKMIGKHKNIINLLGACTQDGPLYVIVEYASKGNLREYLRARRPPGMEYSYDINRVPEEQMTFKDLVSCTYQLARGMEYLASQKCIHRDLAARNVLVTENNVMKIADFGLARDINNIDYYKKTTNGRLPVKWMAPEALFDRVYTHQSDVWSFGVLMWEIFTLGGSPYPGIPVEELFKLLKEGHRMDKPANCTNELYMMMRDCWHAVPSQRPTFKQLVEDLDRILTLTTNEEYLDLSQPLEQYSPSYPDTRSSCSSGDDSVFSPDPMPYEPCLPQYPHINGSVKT
# Sequence of KDR (h) (P35968 20-1356): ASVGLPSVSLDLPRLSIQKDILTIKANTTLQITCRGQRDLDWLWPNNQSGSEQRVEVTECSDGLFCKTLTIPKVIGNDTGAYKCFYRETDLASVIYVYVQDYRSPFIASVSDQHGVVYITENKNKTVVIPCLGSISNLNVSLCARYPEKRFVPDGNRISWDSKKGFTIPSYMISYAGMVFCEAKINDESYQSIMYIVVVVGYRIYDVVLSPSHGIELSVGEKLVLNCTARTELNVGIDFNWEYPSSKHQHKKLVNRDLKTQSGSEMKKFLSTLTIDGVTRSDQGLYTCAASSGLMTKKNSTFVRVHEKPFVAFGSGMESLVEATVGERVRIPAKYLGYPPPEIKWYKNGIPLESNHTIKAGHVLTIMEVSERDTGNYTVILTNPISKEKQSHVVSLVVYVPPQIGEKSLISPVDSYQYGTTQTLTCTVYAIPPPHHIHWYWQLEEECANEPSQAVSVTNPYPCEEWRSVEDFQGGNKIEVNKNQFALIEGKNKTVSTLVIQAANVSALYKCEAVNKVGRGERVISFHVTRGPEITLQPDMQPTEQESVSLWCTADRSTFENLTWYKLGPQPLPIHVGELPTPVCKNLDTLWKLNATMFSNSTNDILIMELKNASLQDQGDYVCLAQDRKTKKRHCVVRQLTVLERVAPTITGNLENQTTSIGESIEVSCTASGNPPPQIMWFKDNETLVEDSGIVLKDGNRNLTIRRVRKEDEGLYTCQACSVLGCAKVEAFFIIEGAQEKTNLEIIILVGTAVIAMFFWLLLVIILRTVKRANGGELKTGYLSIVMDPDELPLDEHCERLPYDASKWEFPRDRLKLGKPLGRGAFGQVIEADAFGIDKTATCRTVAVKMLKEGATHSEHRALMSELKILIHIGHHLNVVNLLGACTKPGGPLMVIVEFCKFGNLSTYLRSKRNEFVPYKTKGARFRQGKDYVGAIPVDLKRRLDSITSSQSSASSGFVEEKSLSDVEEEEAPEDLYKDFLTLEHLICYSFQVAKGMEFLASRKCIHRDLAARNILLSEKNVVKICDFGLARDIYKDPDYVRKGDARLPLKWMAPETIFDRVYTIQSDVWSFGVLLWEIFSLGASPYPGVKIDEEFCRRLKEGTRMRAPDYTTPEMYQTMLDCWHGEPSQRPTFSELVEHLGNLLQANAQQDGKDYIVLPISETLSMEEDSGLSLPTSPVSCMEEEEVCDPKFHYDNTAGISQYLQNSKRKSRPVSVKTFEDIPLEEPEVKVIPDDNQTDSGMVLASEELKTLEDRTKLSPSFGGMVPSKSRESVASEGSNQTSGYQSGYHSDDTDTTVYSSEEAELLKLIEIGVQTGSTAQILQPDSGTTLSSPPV
# T3 sequence (P22607 whole entry, change not shown): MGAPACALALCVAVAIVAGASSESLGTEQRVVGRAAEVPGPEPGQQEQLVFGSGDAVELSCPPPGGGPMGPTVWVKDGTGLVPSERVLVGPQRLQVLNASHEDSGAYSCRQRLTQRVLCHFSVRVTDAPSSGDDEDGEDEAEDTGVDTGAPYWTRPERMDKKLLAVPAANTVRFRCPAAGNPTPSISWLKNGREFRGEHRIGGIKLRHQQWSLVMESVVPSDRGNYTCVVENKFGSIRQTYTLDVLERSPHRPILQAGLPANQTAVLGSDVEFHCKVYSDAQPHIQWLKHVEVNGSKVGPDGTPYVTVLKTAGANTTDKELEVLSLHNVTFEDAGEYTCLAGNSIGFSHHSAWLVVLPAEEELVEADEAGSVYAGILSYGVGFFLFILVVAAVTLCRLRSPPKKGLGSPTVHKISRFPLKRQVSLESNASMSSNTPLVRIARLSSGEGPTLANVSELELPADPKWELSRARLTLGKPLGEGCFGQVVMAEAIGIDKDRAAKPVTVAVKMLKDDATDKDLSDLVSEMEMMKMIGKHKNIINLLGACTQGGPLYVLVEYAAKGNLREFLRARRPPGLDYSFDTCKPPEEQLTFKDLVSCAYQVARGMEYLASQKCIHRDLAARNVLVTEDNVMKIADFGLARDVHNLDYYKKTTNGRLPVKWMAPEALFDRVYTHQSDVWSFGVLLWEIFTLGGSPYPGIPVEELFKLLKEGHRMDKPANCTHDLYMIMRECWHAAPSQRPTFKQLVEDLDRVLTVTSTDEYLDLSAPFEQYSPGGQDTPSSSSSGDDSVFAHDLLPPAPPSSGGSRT
# Sequence of FGFR4 (h) (P22455 22-802): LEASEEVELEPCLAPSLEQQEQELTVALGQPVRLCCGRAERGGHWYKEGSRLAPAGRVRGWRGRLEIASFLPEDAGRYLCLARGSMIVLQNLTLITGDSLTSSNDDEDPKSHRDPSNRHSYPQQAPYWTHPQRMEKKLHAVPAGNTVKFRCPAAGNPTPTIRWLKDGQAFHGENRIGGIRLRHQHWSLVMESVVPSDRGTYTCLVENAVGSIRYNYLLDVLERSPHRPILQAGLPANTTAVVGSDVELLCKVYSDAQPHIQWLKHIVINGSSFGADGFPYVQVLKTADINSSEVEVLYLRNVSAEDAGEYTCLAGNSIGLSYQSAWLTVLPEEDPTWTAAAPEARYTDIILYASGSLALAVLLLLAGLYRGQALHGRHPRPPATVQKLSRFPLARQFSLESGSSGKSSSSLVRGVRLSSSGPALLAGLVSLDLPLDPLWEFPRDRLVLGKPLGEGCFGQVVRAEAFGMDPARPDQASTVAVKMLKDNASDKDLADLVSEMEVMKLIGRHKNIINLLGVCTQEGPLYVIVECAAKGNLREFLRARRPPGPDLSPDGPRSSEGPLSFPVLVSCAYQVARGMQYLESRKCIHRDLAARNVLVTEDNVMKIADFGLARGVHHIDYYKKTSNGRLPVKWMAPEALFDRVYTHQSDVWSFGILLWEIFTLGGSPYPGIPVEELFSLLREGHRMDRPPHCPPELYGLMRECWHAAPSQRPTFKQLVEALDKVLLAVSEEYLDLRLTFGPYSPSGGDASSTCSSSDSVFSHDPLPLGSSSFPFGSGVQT
# Sequence of FGFR3 (h) (P22607 23-806): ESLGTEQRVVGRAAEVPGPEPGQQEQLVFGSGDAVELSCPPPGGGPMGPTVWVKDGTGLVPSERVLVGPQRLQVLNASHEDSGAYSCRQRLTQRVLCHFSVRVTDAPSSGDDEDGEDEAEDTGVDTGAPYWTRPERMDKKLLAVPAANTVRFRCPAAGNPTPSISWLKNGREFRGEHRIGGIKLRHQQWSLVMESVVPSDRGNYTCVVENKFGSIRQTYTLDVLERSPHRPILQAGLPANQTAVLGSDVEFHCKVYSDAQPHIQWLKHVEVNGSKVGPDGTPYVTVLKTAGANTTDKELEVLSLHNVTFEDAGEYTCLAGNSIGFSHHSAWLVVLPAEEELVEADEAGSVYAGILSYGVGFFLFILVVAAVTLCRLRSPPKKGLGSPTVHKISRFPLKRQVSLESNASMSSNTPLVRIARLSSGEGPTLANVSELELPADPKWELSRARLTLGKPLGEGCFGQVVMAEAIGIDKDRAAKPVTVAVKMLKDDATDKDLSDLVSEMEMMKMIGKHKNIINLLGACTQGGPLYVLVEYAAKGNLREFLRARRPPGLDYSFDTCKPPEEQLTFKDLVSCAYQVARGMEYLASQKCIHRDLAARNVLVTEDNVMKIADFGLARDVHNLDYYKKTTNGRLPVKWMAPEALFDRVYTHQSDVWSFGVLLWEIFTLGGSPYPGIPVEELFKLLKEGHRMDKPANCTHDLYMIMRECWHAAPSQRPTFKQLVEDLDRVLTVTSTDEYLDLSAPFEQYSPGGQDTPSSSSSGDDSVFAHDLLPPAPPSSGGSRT
Structure (SMILES),IC50 [1] [nM],IC50 [2] [nM],BAF3-FGFR1 (MIN IL3) pIC50 [3],IC50 [4] [nM],BAF3-KDR (MIN IL3) pIC50 [5],BAF3-FGFR3 (MIN IL3) pIC50 [6],IC50 [7] [nM],IC50 [8] [nM],IC50 [9] [nM]
COc1cc(/N=c2\ccc3ncc(-c4cnn(C)c4)nc3n2CC2CCCOC2)cc(OC)c1 (stereo not drawn) [Compound 165],2.04,1.12,7.38,> 10000,6.30,7.32,2.4,6.31,> 10000
COc1cc(OC)cc(N(CC2CCCOC2)c2ccc3ncc(-c4cnn(C)c4)nc3n2)c1 (stereo not drawn) [Compound 166],9.33,2.63,6.72,> 10000,5.07,6.65,3.16,55,> 10000
COc1cc(/N=c2\ccc3ncc(-c4cnn(C)c4)nc3n2CCN)c(F)c(OC)c1 [Compound 167],4.17,2.09,6.74,> 10000,5.63,6.72,2.19,16.2,> 10000
COc1cc(OC)c(F)c(N(CCN)c2ccc3ncc(-c4cnn(C)c4)nc3n2)c1 [Compound 168],4.57,3.16,7.48,> 10000,5.57,6.76,2.04,15.8,> 10000
COc1cc(OC)c(F)c(N(CC#N)c2ccc3ncc(-c4cnn(C)c4)nc3n2)c1F [Compound 173],0.724,0.437,8.00,> 10000,5.78,~8.04,1.1,8.91,> 10000
COc1cc(OC)cc(N(Cc2nc(OC)cc(OC)n2)c2ccc3ncc(-c4cnn(C)c4)nc3n2)c1 [Compound 174],77.6,36.3,5.68,> 10000,<5,5.57,6.92,89.1,> 10000
Cn1cc(-c2cnc3ccc(N(Cc4ncc[nH]4)c4c(F)c(F)cc(F)c4F)nc3n2)cn1 [Compound 175],4.79,2,6.87,> 10000,<5,6.86,1.91,219,> 10000
COc1cc(OC)c(F)c(N(Cc2ncco2)c2ccc3ncc(-c4cnn(C)c4)nc3n2)c1 [Compound 177],2.45,1.07,7.22,> 10000,5.67,7.10,1.62,10.5,> 10000
COc1cc(OC)c(F)c(N(Cc2c(C)noc2C)c2ccc3ncc(-c4cnn(C)c4)nc3n2)c1 [Compound 178],19.5,3.55,6.20,> 10000,<5,6.29,7.41,61.7,> 10000
COc1cc(/N=c2\ccc3ncc(-c4cnn(C)c4)nc3n2Cc2c(C)noc2C)c(F)c(OC)c1 [Compound 179],3.47,1.26,<5.52,> 3020,<5.52,<5.52,2.57,12.3,> 3020
COc1cc(OC)c(F)c(N(Cc2cc(C)on2)c2ccc3ncc(-c4cnn(C)c4)nc3n2)c1 [Compound 180],1.66,1.07,7.43,> 10000,5.58,7.36,1.62,9.55,> 10000
COc1cc(/N=c2\ccc3ncc(-c4cnn(C)c4)nc3n2Cc2cc(C)on2)c(F)c(OC)c1 [Compound 181],1.05,1.55,7.76,> 10000,5.97,8.05,2.19,6.76,> 10000
COc1cc(OC)cc(N(Cc2ncc[nH]2)c2ccc3ncc(-c4cccnc4)nc3n2)c1 [Compound 182],2.34,1.15,7.60,> 10000,5.48,~7.76,2.04,64.6,> 10000
COc1cc(/N=c2\ccc3ncc(-c4cnn(C)c4)nc3n2Cc2cc(C)no2)c(F)c(OC)c1 [Compound 184],1.17,1.35,~8.34,> 10000,6.71,~8.15,2.19,4.79,> 10000
COc1cc(OC)c(F)c(N(Cc2cc(C)no2)c2ccc3ncc(-c4cnn(C)c4)nc3n2)c1 [Compound 185],0.977,0.912,7.59,> 10000,5.51,7.64,1.51,17.8,> 10000
